What was measured:
[1] = molecular target: T1, PTPN1 (i.e., PTP1B) (Homo sapiens, UniProt P18031); assay: Phosphatase activity assay (DiFMUP substrate), PTP1B; format: biochemical; details: compounds binned ≤1 uM or >1 uM
T1 sequence (P18031 1-435): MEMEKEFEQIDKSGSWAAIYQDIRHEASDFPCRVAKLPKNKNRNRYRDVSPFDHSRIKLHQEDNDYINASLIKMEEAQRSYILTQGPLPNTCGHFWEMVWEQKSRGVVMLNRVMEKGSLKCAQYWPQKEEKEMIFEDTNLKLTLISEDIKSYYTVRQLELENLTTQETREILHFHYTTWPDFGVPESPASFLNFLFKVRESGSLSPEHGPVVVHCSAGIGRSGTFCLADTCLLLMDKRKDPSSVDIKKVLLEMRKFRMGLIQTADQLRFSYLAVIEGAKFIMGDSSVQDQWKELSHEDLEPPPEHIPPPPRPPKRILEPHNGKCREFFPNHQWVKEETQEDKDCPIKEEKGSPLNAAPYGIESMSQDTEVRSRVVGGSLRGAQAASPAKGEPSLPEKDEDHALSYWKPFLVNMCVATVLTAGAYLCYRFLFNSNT
In short: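 Continuous fluorogenic readout of DiFMUP dephosphorylation at room temperature, substrate set at Km for each phosphatase (about 45 μM in the PTPN2 assay). The buffer contains 1 mM DTT and 0.001% Tween-20, pH 7.5.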

[2] = molecular target: T2, PTPN2 (i.e., TC-PTP) (Homo sapiens, UniProt P17706); assay: Phosphatase activity assay (DiFMUP substrate), PTPN2; format: biochemical; details: compounds binned ≤1 uM or >1 uM
T2 sequence (P17706 1-415): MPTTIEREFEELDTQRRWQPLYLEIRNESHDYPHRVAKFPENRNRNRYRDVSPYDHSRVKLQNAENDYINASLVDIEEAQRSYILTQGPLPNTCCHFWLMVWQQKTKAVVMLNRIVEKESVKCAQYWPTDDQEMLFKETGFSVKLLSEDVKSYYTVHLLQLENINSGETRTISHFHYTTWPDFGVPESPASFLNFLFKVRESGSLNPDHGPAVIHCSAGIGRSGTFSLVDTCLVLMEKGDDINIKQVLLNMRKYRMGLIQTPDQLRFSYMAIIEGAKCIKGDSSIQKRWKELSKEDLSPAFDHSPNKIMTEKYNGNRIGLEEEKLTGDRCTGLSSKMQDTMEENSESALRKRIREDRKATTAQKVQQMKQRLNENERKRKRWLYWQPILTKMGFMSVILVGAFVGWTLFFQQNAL
In short: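 Enzyme (e.g. PTPN2 0.025 ng/ul) mixed about 2 min with compound at 10 serial concentrations in 50 mM HEPES pH 7.5, 150 mM NaCl, 0.5 mM EDTA, 1 mM DTT, 0.001% Tween-20 at room temperature. DiFMUP added at each enzyme's Km (about 45 μM for PTPN2). DiFMU fluorescence (ex 360/em 450 nm) followed 15-30 min; IC50 from 4-parameter fit of rates.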

Compound | IC50 [1] [nM] | IC50 [2] [nM]
N#CCCn1cc(-c2ccc(O)c(N3CC(=O)NS3(=O)=O)c2F)cn1 [Compound 204, 3-(4-(3-(1,1-dioxido-4-oxo-1,2,5-thiadiazolidin-2-yl)-2-fluoro-4-hydroxyphenyl)-1H-pyrazol-1-yl)propanenitrile] | ≤ 1000 | ≤ 1000
O=C1CN(c2c(O)ccc(-c3c[nH]c(CCC4CC4)c3)c2F)S(=O)(=O)N1 [Compound 257, 5-(3-(5-(2-cyclopropylethyl)-1H-pyrrol-3-yl)-2-fluoro-6-hydroxyphenyl)-1,2,5-thiadiazolidin-3-one 1,1-dioxide] | ≤ 1000 | ≤ 1000
O=C1CN(c2c(O)ccc(-c3ccc(N4CCCC4)cc3)c2F)S(=O)(=O)N1 [Compound 117, 5-(2-fluoro-4-hydroxy-4′-(pyrrolidin-1-yl)-[1,1′-biphenyl]-3-yl)-1,2,5-thiadiazolidin-3-one 1,1-dioxide] | ≤ 1000 | ≤ 1000
O=C1CN(c2c(O)ccc(-c3cnn(Cc4ccccc4)c3)c2F)S(=O)(=O)N1 [Compound 212, 5-(3-(1-benzyl-1H-pyrazol-4-yl)-2-fluoro-6-hydroxyphenyl)-1,2,5-thiadiazolidin-3-one 1,1-dioxide] | ≤ 1000 | ≤ 1000
O=C1CN(c2c(O)ccc(C3=CCN(S(=O)(=O)C4CC4)CC3)c2F)S(=O)(=O)N1 [Compound 355, 5-(3-(1-(cyclopropylsulfonyl)-1,2,3,6-tetrahydropyridin-4-yl)-2-fluoro-6-hydroxyphenyl)-1,2,5-thiadiazolidin-3-one 1,1-dioxide] | ≤ 1000 | ≤ 1000
CC(C)CCn1cc(-c2ccc(O)c(N3CC(=O)NS3(=O)=O)c2F)c(=O)[nH]1 [Compound 444, 5-(2-fluoro-6-hydroxy-3-(1-isopentyl-3-oxo-2,3-dihydro-1H-pyrazol-4-yl)phenyl)-1,2,5-thiadiazolidin-3-one 1,1-dioxide] | ≤ 1000 | ≤ 1000
COc1cccc(-n2cnc(-c3ccc(O)c(N4CC(=O)NS4(=O)=O)c3F)c2)c1 [Compound 445, 5-(2-fluoro-6-hydroxy-3-(1-(3-methoxyphenyl)-1H-imidazol-4-yl)phenyl)-1,2,5-thiadiazolidin-3-one 1,1-dioxide] | ≤ 1000 | ≤ 1000
N#CCc1cc(-c2ccc(O)c(N3CC(=O)NS3(=O)=O)c2F)[nH]n1 [Compound 365, 2-(5-(3-(1,1-dioxido-4-oxo-1,2,5-thiadiazolidin-2-yl)-2-fluoro-4-hydroxyphenyl)-1H-pyrazol-3-yl)acetonitrile] | ≤ 1000 | ≤ 1000
C[C@@H]1C=C(c2ccc(O)c(N3CC(=O)NS3(=O)=O)c2F)CN1 [Compound 483, (R)-5-(2-fluoro-6-hydroxy-3-(5-methyl-2,5-dihydro-1H-pyrrol-3-yl)phenyl)-1,2,5-thiadiazolidin-3-one 1,1-dioxide] | ≤ 1000 | ≤ 1000
O=C1CN(c2c(O)ccc(-c3cn(-c4ccccc4)cn3)c2F)S(=O)(=O)N1 [Compound 190, 5-(2-fluoro-6-hydroxy-3-(1-phenyl-1H-imidazol-4-yl)phenyl)-1,2,5-thiadiazolidin-3-one 1,1-dioxide] | ≤ 1000 | ≤ 1000
N#CC1(Cn2cc(-c3ccc(O)c(N4CC(=O)NS4(=O)=O)c3F)cn2)CCC1 [Compound 313, 1-((4-(3-(1,1-dioxido-4-oxo-1,2,5-thiadiazolidin-2-yl)-2-fluoro-4-hydroxyphenyl)-1H-pyrazol-1-yl)methyl)cyclobutane-1-carbonitrile] | ≤ 1000 | ≤ 1000

Next, values leading:

IC50 [1] [nM] | IC50 [2] [nM] | Compound
≤ 1000 | ≤ 1000 | CCn1nc(-c2ccc(O)c(N3CC(=O)NS3(=O)=O)c2F)cc1C1CC1 [Compound 331, 5-(3-(5-cyclopropyl-1-ethyl-1H-pyrazol-3-yl)-2-fluoro-6-hydroxyphenyl)-1,2,5-thiadiazolidin-3-one 1,1-dioxide]
≤ 1000 | ≤ 1000 | NC(=O)Cc1cc(-c2ccc(O)c(N3CC(=O)NS3(=O)=O)c2F)[nH]n1 [Compound 520, 2-(5-(3-(1,1-dioxido-4-oxo-1,2,5-thiadiazolidin-2-yl)-2-fluoro-4-hydroxyphenyl)-1H-pyrazol-3-yl)acetamide]
≤ 1000 | ≤ 1000 | CC(C)CCn1ccc(-c2ccc(O)c(N3CC(=O)NS3(=O)=O)c2F)c1 [Compound 125, 5-(2-fluoro-6-hydroxy-3-(1-isopentyl-1H-pyrrol-3-yl)phenyl)-1,2,5-thiadiazolidin-3-one 1,1-dioxide]
≤ 1000 | ≤ 1000 | O=C1CN(c2c(O)ccc(-c3ccc(OCc4ccccc4)nc3)c2F)S(=O)(=O)N1 [Compound 143, 5-(3-(6-(benzyloxy)pyridin-3-yl)-2-fluoro-6-hydroxyphenyl)-1,2,5-thiadiazolidin-3-one 1,1-dioxide]
≤ 1000 | ≤ 1000 | O=C1CN(c2c(O)ccc(C3=CCCN(C4CC4)C3)c2F)S(=O)(=O)N1 [Compound 378, 5-(3-(1-cyclopropyl-1,2,5,6-tetrahydropyridin-3-yl)-2-fluoro-6-hydroxyphenyl)-1,2,5-thiadiazolidin-3-one 1,1-dioxide]
≤ 1000 | ≤ 1000 | N#Cc1cccc(Cn2cc(-c3ccc(O)c(N4CC(=O)NS4(=O)=O)c3F)cn2)c1 [Compound 161, 3-((4-(3-(1,1-dioxido-4-oxo-1,2,5-thiadiazolidin-2-yl)-2-fluoro-4-hydroxyphenyl)-1H-pyrazol-1-yl)methyl)benzonitrile]
≤ 1000 | ≤ 1000 | Cn1cc(-c2ccc(O)c(N3CC(=O)NS3(=O)=O)c2F)c(F)n1 [Compound 110, 5-(2-fluoro-3-(3-fluoro-1-methyl-1H-pyrazol-4-yl)-6-hydroxyphenyl)-1,2,5-thiadiazolidin-3-one 1,1-dioxide]
≤ 1000 | ≤ 1000 | CN(C)C1CC=C(c2ccc(O)c(N3CC(=O)NS3(=O)=O)c2F)C1 (stereo not drawn) [Compound 301, 5-(3-(4-(dimethylamino)cyclopent-1-en-1-yl)-2-fluoro-6-hydroxyphenyl)-1,2,5-thiadiazolidin-3-one 1,1-dioxide]
≤ 1000 | ≤ 1000 | Cn1cc(-c2ccc(O)c(N3CC(=O)NS3(=O)=O)c2F)ccc1=O [Compound 106, 5-(2-fluoro-6-hydroxy-3-(1-methyl-6-oxo-1,6-dihydropyridin-3-yl)phenyl)-1,2,5-thiadiazolidin-3-one 1,1-dioxide]
≤ 1000 | ≤ 1000 | N#CNC(=N)N1CCC=C(c2ccc(O)c(N3CC(=O)NS3(=O)=O)c2F)C1 [Compound 535, N-cyano-5-(3-(1,1-dioxido-4-oxo-1,2,5-thiadiazolidin-2-yl)-2-fluoro-4-hydroxyphenyl)-3,6-dihydropyridine-1(2H)-carboximidamide]
≤ 1000 | ≤ 1000 | O=C1CN(c2c(O)ccc(-c3cnn(CCc4ccccc4)c3)c2F)S(=O)(=O)N1 [Compound 207, 5-(2-fluoro-6-hydroxy-3-(1-phenethyl-1H-pyrazol-4-yl)phenyl)-1,2,5-thiadiazolidin-3-one 1,1-dioxide]
≤ 1000 | ≤ 1000 | O=C1CN(c2c(O)ccc(C3=CC(COC(F)F)NC3)c2F)S(=O)(=O)N1 (stereo not drawn) [Compound 480, 5-(3-(5-((difluoromethoxy)methyl)-2,5-dihydro-1H-pyrrol-3-yl)-2-fluoro-6-hydroxyphenyl)-1,2,5-thiadiazolidin-3-one 1,1-dioxide]
≤ 1000 | ≤ 1000 | O=C1CN(c2c(O)ccc(-c3cc(CCC(F)(F)F)n[nH]3)c2F)S(=O)(=O)N1 [Compound 415, 5-(2-fluoro-6-hydroxy-3-(3-(3,3,3-trifluoropropyl)-1H-pyrazol-5-yl)phenyl)-1,2,5-thiadiazolidin-3-one 1,1-dioxide]
> 1000 | > 1000 | O=C1CN(c2c(O)ccc(-n3cc(C4CC4)cn3)c2F)S(=O)(=O)N1 [Compound 270, 5-(3-(4-cyclopropyl-1H-pyrazol-1-yl)-2-fluoro-6-hydroxyphenyl)-1,2,5-thiadiazolidin-3-one 1,1-dioxide]
≤ 1000 | ≤ 1000 | C=Cc1cc(-c2ccc(O)c(N3CC(=O)NS3(=O)=O)c2F)[nH]n1 [Compound 312, 5-(2-fluoro-6-hydroxy-3-(3-vinyl-1H-pyrazol-5-yl)phenyl)-1,2,5-thiadiazolidin-3-one 1,1-dioxide]
≤ 1000 | ≤ 1000 | CC(C)CCn1cnc(-c2ccc(O)c(C3=CC(=O)NS3(=O)=O)c2F)c1 [Compound 391, 5-(2-fluoro-6-hydroxy-3-(1-isopentyl-1H-imidazol-4-yl)phenyl)isothiazol-3(2H)-one 1,1-dioxide]
